Results on 2 compounds are retold here after patent US20120070486A1, “METHODS AND COMPOSITIONS RELATED TO PREFOLDIN AND ITS REGULATION” (priority 2007, published 2012).

One series relates to HeyA8-MDR cell line. Description: docetaxel IC50 in chemoresistant HeyA8-MDR cell line. It is filed as cell-based. Particulars: Homo sapiens.
A further series concerns SKOV3-TR cell line. Kind of series: docetaxel IC50 in chemoresistant SKOV3-TR cell line. The format is cell-based. The note with it: Homo sapiens, SKOV3TR.
A further series deals with SKOV3 cell line. Description: docetaxel IC50 in chemosensitive parental SKOV3 cell line. It is filed as cell-based. Particulars: Homo sapiens, SK-OV-3, one range printed for HeyA8 and SKOV3.
The next series concerns HeyA8 cell line. Kind of series: docetaxel IC50 in chemosensitive parental HeyA8 cell line. It is filed as cell-based. The note with it: Homo sapiens, HEY A8, one range printed for HeyA8 and SKOV3.
Series [1] has as its system microtubule cytoskeleton of SKOV3 cells. Description: indirect immunofluorescent staining for α-tubulin of the microtubule cytoskeleton after siRNA transfection. Particulars: 48 hours following transfection, fluorescent microscopy, compared to control siRNA. The format is cell-based, human. How it is done:
RNA interference: PFDN4 siRNA (sense: […] (SEQ ID NO:6); antisense: […] (SEQ ID NO:7)) and AllStars Negative Control siRNA were purchased from Qiagen (Valencia, Calif.). HeyA8 and SKOV3 were grown to 50% confluence prior to transfection with control or PFDN4 siRNA using Lipofectamine 2000 (Invitrogen, Valencia, Calif.) following manufacturer's instruction. Cells were typically harvested for analysis 48-72 hours following transfection. Immunofluorescent staining HeyA8 and SKOV3 cells were grown on glass coverslips in 24-well plates for 24 hours prior to transfection with either control or PFDN4 siRNA, and cultured for an additional 48 hours. Media was then aspirated and replaced with 0.5 mL of 4% paraformaldehyde for 30 minutes. Cells were then incubated with 100 mM glycine for 5 minutes, washed once with PBS and then incubated with 0.2% TritonX-100 in PBS for 10 minutes. Coverslips were washed thrice in PBS and then blocked for 30 minutes in 10% goat serum in PBS. Coverslips were then incubated with a 1:2000 dilution of anti-α-tubulin antibodies for 1.5 hours at room temperature. Slides were washed three times with PBS and then incubated for 1 hour with Alexa 555-labelled anti-rabbit secondary antibodies. Coverslips were washed twice with PBS and finally mounted in anti-fade mounting media and then visualized by fluorescence microscopy. […]

In the next series the test system is PFDN4 mRNA. Kind of series: RT-PCR screen of siRNA mediated gene silencing of PFDN4 in SKOV3 cells. It is filed as cell-based, human. Here is the method:
RT-PCR: RT-PCR RNA was extracted from ovarian cancer cell lines using TRIzo10 (Invitrogen, Carlsbad, Calif.) as per manufacturer's instructions. 2 μg of total mRNA was reverse transcribed using the Superscript first strand kit (Superscript, Invitrogen, Carlsbad, Calif.), and 2 μL from each reaction was subjected to PCR using standard techniques. PFDN4 primers generated a 413 by product (PFDN4 forward: […] (SEQ ID NO:1); PFDN4 reverse: […] (SEQ ID NO:2)). GAPDH primers generated an approximately 800 by product (GAPDH forward:[…] (SEQ ID NO:3); GAPDH reverse: […] (SEQ ID NO:4)). Semi-quantitative cycling conditions were optimized to the following program: 98° C. for 2 minutes followed by 22 cycles at 95° C. for 30 seconds, 55° C. for 30 seconds and 72° C. for 60 seconds, followed by a final cycle at 72° C. for 5 minutes. PCR products were visualized by agarose gel electrophoresis.
RNA interference: PFDN4 siRNA (sense: […] (SEQ ID NO:6); antisense: […] (SEQ ID NO:7)) and AllStars Negative Control siRNA were purchased from Qiagen (Valencia, Calif.). HeyA8 and SKOV3 were grown to 50% confluence prior to transfection with control or PFDN4 siRNA using Lipofectamine 2000 (Invitrogen, Valencia, Calif.) following manufacturer's instruction. […] Coverslips were washed twice with PBS and finally mounted in anti-fade mounting media and then visualized by fluorescence microscopy. […]

In another series the test system is PFDN4 protein. Kind of series: siRNA mediated silencing of PFDN4 protein expression in SKOV3 cells (western blot). The note with it: in vitro, by 48 hours. It is filed as cell-based, human. Here is the method: Immunoprecipitation and Western Blot Analysis: Each 10 cm plate of cells was lysed in 1 mL NP-40 lysis buffer (50 mM Hepes, pH 7.25, 150 mM NaCl, […], 50 mM NaF, 2 mM EDTA, 1 mM sodium orthovanadate, 1% NP-40), supplemented with Roche complete protease inhibitors (Roche Diagnostics, Indianapolis, Ind.). Cell lysates were cleared by centrifugation at 14000 g for 15 minutes at 4° C. Protein concentration was determined using the BCA Protein Assay (Pierce Biotechnology, Rockford, Ill.). 1 mg total protein lysate was combined with 50 μL of 20% Protein A Sepharose CL4B beads (Amersham Biosciences, Piscataway, N.J.) and 1 μg of anti-PFDN4 antibody. […]
RNA interference: PFDN4 siRNA (sense: […] (SEQ ID NO:6); antisense: […] (SEQ ID NO:7)) and AllStars Negative Control siRNA were purchased from Qiagen (Valencia, Calif.). […] Coverslips were washed twice with PBS and finally mounted in anti-fade mounting media and then visualized by fluorescence microscopy.
To determine the effect of PFDN4 downregulation in ovarian cancer in vitro, the inventors utilized RNA interference (RNAi) technology to silence PFDN4 expression in ovarian cancer cells. […] Using an RT-PCR based screen, the inventors detected a decrease in PFDN4 mRNA within 4 hours following transfection, with greater than 90% silencing observed by 24 hours following transfection (FIG. 5).

In general, IC50 refers to the midpoint of a concentration-inhibition curve. Consider `CC(=O)O[C@@]12CO[C@@H]1C[C@H](O)[C@@]1(C)C(=O)[C@H](O)C3=C(C)[C@@H](OC(=O)[C@H](O)[C@@H](NC(=O)OC(C)(C)C)c4ccccc4)C[C@@](O)([C@@H](OC(=O)c4ccccc4)[C@H]21)C3(C)C` [docetaxel], for which the IC50 with HeyA8-MDR cell line was at least 250 nM; with SKOV3-TR cell line, at least 250 nM; with SKOV3 cell line, 1 to 6.2 nM; in the series on HeyA8 cell line, 1 to 6.2 nM.
As for “PFDN4 siRNA: siRNA, sense UUCAGCGAGUGUUAGCAGATT (SEQ ID NO:6), antisense UCUGCUAACACCGCUGAATT (SEQ ID NO:7), purchased from Qiagen (chemistry not given here)”, the “morphology of microtubule cytoskeleton” value in series [1] is “less organized (FIG. 7B) and more condensed”. In the series with PFDN4 mRNA, the “time to detected decrease in PFDN4 mRNA following transfection” value was at most 4 h. The “PFDN4 mRNA silencing” value in the series with PFDN4 mRNA (by 24 hours following transfection) is “greater than 90%”. For the same compound, the “down-regulation in PFDN4 protein production” value with PFDN4 protein is recorded as “detectable down-regulation”.
